Conditions: Liquid, Vibrating tube method

CCCCO [butan-1-ol]
Conditions	mass density [kg/m3]
283.15 K, 267.6 kPa	817.937
283.15 K, 550.8 kPa	818.14
283.15 K, 878.6 kPa	818.388
283.15 K, 991.3 kPa	818.415
283.15 K, 2020.2 kPa	819.134
283.15 K, 2914.8 kPa	819.722
283.15 K, 4946.5 kPa	821.145
283.15 K, 7034.8 kPa	822.538
283.15 K, 9021.6 kPa	823.807
283.15 K, 9991.9 kPa	824.485
283.15 K, 11959 kPa	825.705
283.15 K, 15011 kPa	827.609
283.15 K, 18047 kPa	829.455
283.15 K, 20045 kPa	830.642
283.15 K, 22057 kPa	831.928
283.15 K, 25044 kPa	833.615
283.15 K, 28046 kPa	835.368
283.15 K, 30052 kPa	836.501
283.15 K, 32970 kPa	838.092
283.15 K, 32971 kPa	838.117
283.15 K, 34017 kPa	838.557
283.15 K, 34960 kPa	839.141
283.15 K, 37943 kPa	840.737
283.15 K, 40004 kPa	841.811
283.15 K, 42058 kPa	842.896
283.15 K, 44940 kPa	844.325
283.15 K, 48022 kPa	845.954
283.15 K, 49996 kPa	846.902
283.15 K, 51982 kPa	847.942
283.15 K, 54965 kPa	849.358
283.15 K, 57949 kPa	850.826
283.15 K, 59996 kPa	851.847
283.15 K, 62025 kPa	852.74
283.15 K, 64998 kPa	854.215
283.16 K, 101.2 kPa	817.825
283.16 K, 65971 kPa	854.69
288.15 K, 78.5 kPa	813.612
288.15 K, 391.3 kPa	813.84
288.15 K, 554.4 kPa	813.953
288.15 K, 882.7 kPa	814.204
288.15 K, 989.1 kPa	814.282
288.15 K, 2057.5 kPa	815.033
288.15 K, 2917.8 kPa	815.651
288.15 K, 5041.4 kPa	817.16
288.15 K, 7088.8 kPa	818.541
288.15 K, 9018.6 kPa	819.847
288.15 K, 10040 kPa	820.583
288.15 K, 12072 kPa	821.91
288.15 K, 15001 kPa	823.877
288.15 K, 17968 kPa	825.72
288.15 K, 20068 kPa	826.976
288.15 K, 20693 kPa	827.38
288.15 K, 22020 kPa	828.211
288.15 K, 25002 kPa	829.984
288.15 K, 28026 kPa	831.832
288.15 K, 30035 kPa	832.896
288.15 K, 32084 kPa	834.074
288.15 K, 33050 kPa	834.714
288.15 K, 34036 kPa	835.152
288.15 K, 35077 kPa	835.674
288.15 K, 37993 kPa	837.311
288.15 K, 40041 kPa	838.449
288.15 K, 42023 kPa	839.459
288.15 K, 44979 kPa	841.064
288.15 K, 48045 kPa	842.655
288.15 K, 50068 kPa	843.734
288.15 K, 52032 kPa	844.696
288.15 K, 55077 kPa	846.251
288.15 K, 58004 kPa	847.666
288.15 K, 59988 kPa	848.618
288.15 K, 61974 kPa	849.542
288.15 K, 64942 kPa	850.93
288.15 K, 66025 kPa	851.488
293.15 K, 91.1 kPa	810.528
293.15 K, 825.1 kPa	811.053
293.15 K, 1971.7 kPa	811.916
293.15 K, 3060.6 kPa	812.72
293.15 K, 5011 kPa	814.074

— the NIST ThermoML archive (doi:10.1021/je5010214)
